Measurements reported in patent US20080075784A1, “Taste Making Formulation Comprising The Drug In A Dissolution-Retarded Form And/Or Cyclodextrin In A Dissolution-Enhanced Form” (Pfizer Inc., priority 2004, published 2008).

Test: β-cyclodextrin dissolution rate in deionized water by refractive index
Assay type: physicochemical
Settings: for amount of dissolved cyclodextrin at one minute relative to the 156 μm cyclodextrin: one minute following administration; for β-Cyclodextrin Dissolved (%): 350 mg in 50 mL deionized water
Description: In this example, the amount of dissolved cyclodextrin provided by several different β-cyclodextrin samples with varying ranges of particle size was determined. Samples of β-cyclodextrin with average particle sizes ranging from 116 μm to 249 μm were obtained from Roquette America of Keokuk, Iowa. In addition, a β-cyclodextrin sample with an average particle size range of about 57 μm was prepared by first dissolving the 249-μm commercially available sample in water and then lyophilizing the solution to form a fine powder. Volume weighted mean particle diameter in microns for each β-cyclodextrin sample was determined using a Horiba particle sizer.
The dissolution rates of these samples were determined as follows. A 350 mg sample of β-cyclodextrin of a given particle size was placed into 50 mL of deionized water, and the refractive index was measured at the time points noted in Table 2. Refractive index measurements were compared to a calibration curve of standards with known concentration, and the concentration of dissolved β-cyclodextrin versus time was determined.

SMILES: OC[C@H]1O[C@@H]2O[C@H]3[C@H](O)[C@@H](O)[C@@H](O[C@H]4[C@H](O)[C@@H](O)[C@@H](O[C@H]5[C@H](O)[C@@H](O)[C@@H](O[C@H]6[C@H](O)[C@@H](O)[C@@H](O[C@H]7[C@H](O)[C@@H](O)[C@@H](O[C@H]8[C@H](O)[C@@H](O)[C@@H](O[C@H]1[C@H](O)[C@H]2O)O[C@@H]8CO)O[C@@H]7CO)O[C@@H]6CO)O[C@@H]5CO)O[C@@H]4CO)O[C@@H]3CO [57 μm, β-cyclodextrin]
- amount of dissolved cyclodextrin at one minute relative to the 156 μm cyclodextrin: about 2.4 fold
- β-Cyclodextrin Dissolved (%) (time 0 min): 0%
- β-Cyclodextrin Dissolved (%) (time 1 min): 102%
- β-Cyclodextrin Dissolved (%) (time 2 min): 102%
- β-Cyclodextrin Dissolved (%) (time 3 min): 97%
- β-Cyclodextrin Dissolved (%) (time 4 min): 99%
- β-Cyclodextrin Dissolved (%) (time 5 min): 100%

SMILES: OC[C@H]1O[C@@H]2O[C@H]3[C@H](O)[C@@H](O)[C@@H](O[C@H]4[C@H](O)[C@@H](O)[C@@H](O[C@H]5[C@H](O)[C@@H](O)[C@@H](O[C@H]6[C@H](O)[C@@H](O)[C@@H](O[C@H]7[C@H](O)[C@@H](O)[C@@H](O[C@H]8[C@H](O)[C@@H](O)[C@@H](O[C@H]1[C@H](O)[C@H]2O)O[C@@H]8CO)O[C@@H]7CO)O[C@@H]6CO)O[C@@H]5CO)O[C@@H]4CO)O[C@@H]3CO [116 μm, β-cyclodextrin]
- amount of dissolved cyclodextrin at one minute relative to the 156 μm cyclodextrin: about 1.4 fold
- β-Cyclodextrin Dissolved (%) (time 0 min): 0%
- β-Cyclodextrin Dissolved (%) (time 1 min): 58%
- β-Cyclodextrin Dissolved (%) (time 2 min): 76%
- β-Cyclodextrin Dissolved (%) (time 3 min): 84%
- β-Cyclodextrin Dissolved (%) (time 4 min): 88%

SMILES: OC[C@H]1O[C@@H]2O[C@H]3[C@H](O)[C@@H](O)[C@@H](O[C@H]4[C@H](O)[C@@H](O)[C@@H](O[C@H]5[C@H](O)[C@@H](O)[C@@H](O[C@H]6[C@H](O)[C@@H](O)[C@@H](O[C@H]7[C@H](O)[C@@H](O)[C@@H](O[C@H]8[C@H](O)[C@@H](O)[C@@H](O[C@H]1[C@H](O)[C@H]2O)O[C@@H]8CO)O[C@@H]7CO)O[C@@H]6CO)O[C@@H]5CO)O[C@@H]4CO)O[C@@H]3CO [156 μm, β-cyclodextrin]
- amount of dissolved cyclodextrin provided by crystalline cyclodextrin (one minute after administration): about 41%
- β-Cyclodextrin Dissolved (%) (time 0 min): 0%
- β-Cyclodextrin Dissolved (%) (time 1 min): 41%
- β-Cyclodextrin Dissolved (%) (time 2 min): 81%
- β-Cyclodextrin Dissolved (%) (time 3 min): 96%
- β-Cyclodextrin Dissolved (%) (time 4 min): 92%
- β-Cyclodextrin Dissolved (%) (time 5 min): 95%

SMILES: OC[C@H]1O[C@@H]2O[C@H]3[C@H](O)[C@@H](O)[C@@H](O[C@H]4[C@H](O)[C@@H](O)[C@@H](O[C@H]5[C@H](O)[C@@H](O)[C@@H](O[C@H]6[C@H](O)[C@@H](O)[C@@H](O[C@H]7[C@H](O)[C@@H](O)[C@@H](O[C@H]8[C@H](O)[C@@H](O)[C@@H](O[C@H]1[C@H](O)[C@H]2O)O[C@@H]8CO)O[C@@H]7CO)O[C@@H]6CO)O[C@@H]5CO)O[C@@H]4CO)O[C@@H]3CO [183 μm, β-cyclodextrin]
- β-Cyclodextrin Dissolved (%) (time 0 min): 0%
- β-Cyclodextrin Dissolved (%) (time 1 min): 45%
- β-Cyclodextrin Dissolved (%) (time 2 min): 52%
- β-Cyclodextrin Dissolved (%) (time 3 min): 64%
- β-Cyclodextrin Dissolved (%) (time 4 min): 64%
- β-Cyclodextrin Dissolved (%) (time 5 min): 71%

SMILES: OC[C@H]1O[C@@H]2O[C@H]3[C@H](O)[C@@H](O)[C@@H](O[C@H]4[C@H](O)[C@@H](O)[C@@H](O[C@H]5[C@H](O)[C@@H](O)[C@@H](O[C@H]6[C@H](O)[C@@H](O)[C@@H](O[C@H]7[C@H](O)[C@@H](O)[C@@H](O[C@H]8[C@H](O)[C@@H](O)[C@@H](O[C@H]1[C@H](O)[C@H]2O)O[C@@H]8CO)O[C@@H]7CO)O[C@@H]6CO)O[C@@H]5CO)O[C@@H]4CO)O[C@@H]3CO [249 μm, β-cyclodextrin]
- cyclodextrin dissolved after one minute (one minute, value taken from Table 3): 20 wt %
- β-Cyclodextrin Dissolved (%) (time 0 min): 0%
- β-Cyclodextrin Dissolved (%) (time 1 min): 20%
- β-Cyclodextrin Dissolved (%) (time 2 min): 26%
- β-Cyclodextrin Dissolved (%) (time 3 min): 42%
- β-Cyclodextrin Dissolved (%) (time 4 min): 54%
- β-Cyclodextrin Dissolved (%) (time 5 min): 67%
